row,Compound,melting point [°C]
1,CC12CCC3c4ccc(C(=O)O)cc4CCC3C1CCC2C(=O)Cc1ccccc1 (centres undefined),146 to 150
2,CN(CCN(CCC12CC3CC(CC(C3)C1)C2)C(=O)NCCCc1ccncc1)S(C)(=O)=O,165 to 167
3,Cc1sc(-c2ccco2)nc1O,173 to 174
4,CSC(SC)=C(C#N)C(=O)N(C)C,45 to 46
5,CC(C)(S)CN1CCN(c2ccccn2)CC1,108 to 110
6,CCOC(=O)C(Sc1ccc(O)cc1)c1ccc(-c2cccs2)cc1 (centres undefined),103
7,CC(CO)NC(=O)NCCCCC1CCSS1 (centres undefined),87 to 89
8,CCCOc1nc(-c2ccco2)c2ncn(Cc3ccc(OC)cc3)c2n1,119
9,Cc1ccc(OC2=C(Oc3ccc([N+](=O)[O-])cc3)C(F)(F)C(F)(F)C2(F)F)cc1,72 to 76
10,CN(C)c1ccc(-c2n[nH]c3c2c(=O)n(-c2ccccc2)c2ncccc32)cc1,> 300
11,CCOC(=O)CCC1CCN(C(=O)[C@H](C)NC(=O)c2ccc(C#N)cc2)CC1,108 to 109
12,CC(=O)NC1CCCn2c1c(C)c1ccccc12 (centres undefined),158 to 160
13,CC(=O)N1CCc2cccc(Cl)c2CC1,64 to 66
14,COC(=O)N=C(N)OC,36 to 39.5
15,CC(=O)Nc1ccc2c(c1)NC(=O)CC2(C)C,273 to 278
16,COC(=O)c1ccccc1Cn1ccc(OCc2ccc(F)cc2)c(Br)c1=O,161 to 165
17,CNC(NCCNCc1ccc(CN(C(C)C)C(C)C)o1)=C(C#N)C#N,79 to 80
18,CC(C)(C)OC(=O)NCc1cccc(Cn2ccc(OCc3ccc(F)cc3F)c(Br)c2=O)c1,80 to 84
19,Cc1cc2cc(C3CCN(C(=O)C4CC4)CC3)oc2cc1C,80 to 83
20,COc1ccc(CC(=O)N2CCn3c(c(C(N)=O)c(Cl)c3-c3ccccc3)C2)cc1,146 to 148
21,NC(=O)Cc1c(CCN(Cc2ccccc2)Cc2ccccc2)[nH]c2ccccc12,135 to 136

row,Compound,melting point [°C]
1,CC(C)(Nc1ccccc1[N+](=O)[O-])C(=O)O,132 to 133
2,CNC(=O)NC1CCCCC1,135 to 136
3,CC(C)(C)OC(=O)N1CC2(C[C@H]1C(=O)OCOC(=O)C(C)(C)C)SCCS2,79.5 to 81
4,Cc1cc2ncnn2nc1OCCCC(C)(C)CCS(N)(=O)=O,154 to 155
5,CCOC(=O)c1cccc2nc(S)n(Cc3ccc(-c4ccccc4C#N)cc3)c12,225 to 227
6,COC(C)(OC)OC(=O)N[C@@H](Cc1cn(S(=O)(=O)c2ccc(C)cc2)cn1)C(=O)O,120
7,CC(=O)OC1CSC(Oc2cncc(-c3cnccc3C)c2)C(OC(C)=O)C1OC(C)=O (centres undefined),165
8,NCCCNc1n[nH]c(=O)c2ccccc12,147 to 148
9,COCCC1CCCCCc2c1oc(=O)c(C(c1ccccc1)C1CC1)c2O (centres undefined),78 to 80
10,CC(c1ccc(F)cc1)n1nc(-c2ccc(F)cc2)c(-c2ccc(S(C)(=O)=O)cc2)cc1=O (centres undefined),185 to 186
11,CCCCCCCCCCCCCC(=O)O[C@H](CCCCCCCCCCC)CC(=O)N[C@@H](CO)C(=O)OCc1ccccc1,56 to 61
12,CCOC(=O)CCCn1c2c(c(=O)n3nc(-c4ccccc4)cc13)CN(C1CCCCC1)C2=O,195 to 196
13,Cc1c(C(F)(F)C(F)(F)F)ncn(-c2c(Cl)cc(C(F)(F)F)cc2C#N)c1=O,158 to 160
14,O=C1CCCN1c1cccc(C(F)(F)F)c1,65 to 66
15,CC(=O)N(CC(=O)N1c2ccccc2N(Cc2ccccc2)C(=O)[C@H]2CCC[C@H]21)Cc1ccccc1 (relative stereo),179 to 181
16,c1csc(-c2nc(COc3ccc(CCCCn4ccnc4)cc3)cs2)c1,108 to 109
17,Cc1cccc(C)c1NC(=S)C1(C)CCc2c(C)c(O)c(C)c(C)c2O1 (centres undefined),122 to 123
18,CC1(C(=O)NCCc2cccs2)CC1,86 to 88
19,O=S(=O)(c1ccccc1)n1cc(I)c2c(OC3CCCCC3)ccnc21,112 to 114
20,Cc1ccc(C(=O)C2=C(O)C(=O)N(c3ccc(C)nn3)C2c2ccc(C(C)C)cc2)cc1 (centres undefined),279
21,COc1cc(-c2ccc(O)c(C34CC5CC(CC(C5)C3)C4)c2)cc(C=C2SC(N3CCOCC3)=NC2=O)c1O,310 to 312

row,Compound,melting point [°C]
1,COC(=O)c1ccc(I)c(O)c1,153
2,COc1ccc([N+](=O)[O-])c2c1OCC(C(=O)Nc1ccc(N3CCOCC3)cc1)C2 (centres undefined),238 to 240
3,COC[C@H]1CN(C2=Nc3ccccc3Nc3sc(C)cc32)CCN1C,76 to 80
4,CCCCc1nc2c(N)nc3c(c2n1CCNC(=O)c1cc(C(C)(C)C)c(O)c(C(C)(C)C)c1)NCCC3,208 to 210
5,O=C(NC1CCC2(CC1)CSC1=C(O2)c2ccccc2C(=O)C1=O)Oc1cccc(C(F)(F)F)c1 (centres undefined),198 to 199
6,O=S1(=O)c2cccc3cccc(c23)N1CCN1CCC(Cc2cc3cc(F)ccc3[nH]2)CC1,154
7,Cc1sc(-c2ccccc2)nc1COc1ccc(COc2ncccc2C#N)cc1,120 to 121
8,COc1nc2ccccc2cc1NC(=O)N1CCN(c2cccc(OCC3CC3)c2)CC1,146 to 147
9,CC(=O)Oc1c(C)cc(NC(=O)NC2=C(c3ccccc3)c3ccccc3CS2)cc1C,206 to 208
10,CCCCC(C)C(O)CCc1cc(O)c(O)cc1Br (centres undefined),68 to 71
11,O=C(Nc1cccc2c1C(=O)c1c-2n[nH]c1-c1ccc(C(=O)NC2CCCNC2)s1)NN1CCOCC1 (centres undefined),> 300
12,COc1ccc(N2CCN(c3ccc(Nc4nnc(C)s4)cc3)CC2)cc1,277
13,CCOCc1nc2c(N)nc3ccccc3c2n1CC1(O)CCN(C(=O)OCC)CC1,165 to 167
14,COC(=O)C(Cc1ccc([N+](=O)[O-])c(OCc2ccccc2)c1)NC(=O)OC(C)(C)C (centres undefined),104 to 105
15,COC(=O)[C@H]1CC[C@@H](n2nc(-c3c(-c4ccccc4)nn4ccccc34)ccc2=O)[C@H](O)C1 (relative stereo),169 to 172
16,O=C1CCCC(=O)C1Cc1ccccc1CCCCl,143 to 145
17,CC(=O)OCCn1nc(-c2cc(C(C)(C)C)c(O)c(C(C)(C)C)c2)c2cccnc21,115 to 116
18,CCOC(=O)c1c(C)ccnc1Sc1nc(C)c(CC(=O)O)s1,164 to 166
19,Cn1c(Cl)c(C=C(C#N)S(C)(=O)=O)c2ccccc21,180
20,CC(CCc1ccc(C(C)C(=O)O)cc1)C(=O)O (centres undefined),107 to 109

# Results, then the compound that gave them:
row,melting point [°C],Compound
1,115 to 116,COC(=O)c1ccc(Oc2cc3c(cc2C(C)C)C(C)(C)CCC3(C)C)cc1
2,162,O=C(C(Cl)=CO)c1ccc(Cl)cc1Cl
3,110 to 112,CC1c2cc(Cl)ccc2-c2ccc(Cl)cc21
4,152 to 155,CC(C)(C)OC(=O)Nc1ccc(C#Cc2ccccc2Cl)cc1[N+](=O)[O-]
5,170 to 172,CCOC(=O)C1SCCN1C(=S)Nc1cc(Cl)cc(Cl)c1 (centres undefined)
6,140,CCc1nnc(-c2ccc(OC)cc2)n1-c1cccc(C(F)(F)F)c1
7,142 to 145,CCOC(=O)CCCCC=Cc1cccc(Oc2cccc(C=O)c2)c1
8,64 to 65,CCOC(=O)CCN=c1sc2ccc(Cl)cc2s1
9,194 to 196,COc1ccc(C(CC(=O)Nc2cc(C(N)=O)ccc2C(C)(C)C)CC(C)C)c(OC)c1 (centres undefined)
10,140 to 147,CNCc1ccc(-c2cc3ncnc(Nc4ccc5[nH]ccc5c4)c3s2)cc1
11,289,FC(F)(F)c1cc(-c2ccc(Br)cc2)nc2c(-c3ccncc3)cnn12
12,164 to 166,COc1ccc(C2c3ccccc3C(c3ccccc3)C2C(=O)O)cc1 (centres undefined)
13,69 to 70,CS(=O)(=O)OCc1cc(-c2ccc3c(c2)CCO3)nn(Cc2ccc(Cl)cc2)c1=O
14,217 to 220,N#Cc1ccc2c(c1)C(=O)c1cc3c(cc1OC2)OCO3
15,153 to 154,CN1C(=O)c2ccc(CBr)cc2S1(=O)=O
16,164 to 167,CCOC(=O)Cn1cc2c(n1)-c1ccccc1N(C(=O)c1ccc(NC(=O)c3ccc(Cl)cc3Cl)cc1)CC2
17,> 230,Cn1cc(/C=C/c2ccc3ccccc3n2)cc1C(=O)O
18,214 to 216,COC(=O)C1C(=O)Nc2cccc(C(F)(F)F)c2CC1c1ccc(OC)cc1 (centres undefined)
19,175 to 176,COc1ccc(C(=O)Nc2ccccc2)cc1NCc1ccc(O)c([N+](=O)[O-])c1

row,melting point [°C],Compound
1,267 to 268,COc1ccc(OC)c(-c2cc3c(Nc4cccc(Cl)c4)ncnc3[nH]2)c1
2,116 to 118,O=C1OC(c2ccc(F)cc2)c2ncccc21 (centres undefined)
3,107,COc1ccc(C(=C2CCCCC2)c2ccc(OC)c(OC)c2)cc1OC
4,110 to 111,O=C(NCc1ccccc1F)c1ccc2cnccc2n1
5,69.1,Clc1cc(COCc2cc(Cl)nc(Cl)c2)cc(Cl)n1
6,305 to 306,O=C(O)COc1cc2c(c(Cl)c1Cl)C(=O)c1ccccc1-2
7,117 to 120,CCc1scc2c1CN(S(=O)(=O)c1ccc(C)cc1)C2
8,102 to 103,CC(C)(C)c1ccc2c(c1)C(CO)c1cc(C(C)(C)C)ccc1-2
9,190,COc1ccc(C(=O)Nc2cccc3[nH]ccc23)c(O)c1
10,118 to 120,COc1ccc(CNN2C(=O)CC(C)c3cnc(SC)nc32)cc1Cl (centres undefined)
11,206 to 208,COc1ccc(N2CCCN(c3ccnc4sc(C(N)=O)c(N)c34)CC2)cc1
12,80 to 82,CC1=Nc2ccc(C)cc2C(=O)C1
13,101 to 104,O=C(Nc1ccc(OC(F)(F)F)cc1)N1CC(c2sncc2C(F)(F)F)C(c2ccc(Cl)cc2)=N1 (centres undefined)
14,199 to 200,O=c1c(-c2ccccc2)cc(CO)c2n1CCc1ccsc1-2
15,101,Clc1cccc(C(c2ccccc2)(c2ccccc2)n2ccnc2)c1
16,163 to 164,CC(Cc1ccc(-c2ncc(NC(=O)C(F)(F)F)o2)cc1)N1CC(c2cccc(Cl)c2)OC1=O (centres undefined)
17,251 to 252,O=C(Nc1nc2ccccc2[nH]1)c1ccc(Cl)c(Cl)c1
18,129 to 145,Cc1ccc(N2N=C3c4cc(C(C)O)sc4CCC3CC2=O)cc1 (centres undefined)

# Source: a melting point compilation (Tetko et al.; mined from patent text by program, amines drawn as free bases though some values may be those of a salt)
